PubChem BioAssay (NCI)
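The concentration for 50% growth inhibition is given as GI50. Definition used: TGI = concentration required for complete inhibition of growth.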

Experiments:
Test in all cases: NCI anticancer screen, dose series, 384-well format
CCRF-CEM leukemia = system: CCRF-CEM leukemia
HOP-62 NSCLC = system: HOP-62 NSCLC
HOP-92 NSCLC = system: HOP-92 NSCLC
SR leukemia = system: SR leukemia
IGROV1 ovarian = system: IGROV1 ovarian
UACC-257 melanoma = system: UACC-257 melanoma
NCI-H522 lung = system: NCI-H522 lung
SNB-19 CNS = system: SNB-19 CNS
COLO 205 colon = system: COLO 205 colon
MALME-3M melanoma = system: MALME-3M melanoma
NCI-H322M lung = system: NCI-H322M lung
UO-31 renal = system: UO-31 renal
OVCAR-4 ovarian = system: OVCAR-4 ovarian
NCI/ADR-RES ovarian = system: NCI/ADR-RES ovarian
UACC-62 melanoma = system: UACC-62 melanoma
U251 glioblastoma = system: U251 glioblastoma
HCT-116 colon = system: HCT-116 colon
HCC-2998 colon = system: HCC-2998 colon
MDA-MB-468 breast = system: MDA-MB-468 breast
ACHN renal = system: ACHN renal
HL-60(TB) leukemia = system: HL-60(TB) leukemia
MDA-MB-435 melanoma = system: MDA-MB-435 melanoma
OVCAR-3 ovarian = system: OVCAR-3 ovarian
NCI-H460 NSCLC = system: NCI-H460 NSCLC
NCI-H23 lung = system: NCI-H23 lung
A549 NSCLC = system: A549 NSCLC
RPMI-8226 leukemia = system: RPMI-8226 leukemia
786-0 renal = system: 786-0 renal
MDA-MB-231 breast = system: MDA-MB-231 breast
NCI-H226 lung = system: NCI-H226 lung

CC(=O)OC1C(C)OC(Oc2c(-c3ccc(O)cc3)oc3cc(O)cc(O)c3c2=O)C(O)C1OC(C)=O (stereo not given)
GI50 (CCRF-CEM leukemia): 20.2 µM
TGI (CCRF-CEM leukemia): 37.6 µM
GI50 (HOP-62 NSCLC): 20.8 µM
TGI (HOP-62 NSCLC): 49 µM
GI50 (HOP-92 NSCLC): 28.6 µM
TGI (HOP-92 NSCLC): 76.8 µM
GI50 (SR leukemia): 17.7 µM
TGI (SR leukemia): 34.2 µM
GI50 (IGROV1 ovarian): 44.7 µM
TGI (IGROV1 ovarian): > 100 µM
GI50 (UACC-257 melanoma): 43.5 µM
TGI (UACC-257 melanoma): > 100 µM
GI50 (NCI-H522 lung): 20.5 µM
TGI (NCI-H522 lung): 46.2 µM
GI50 (SNB-19 CNS): 50.4 µM
TGI (SNB-19 CNS): > 100 µM
GI50 (COLO 205 colon): 93.1 µM
TGI (COLO 205 colon): > 100 µM
GI50 (MALME-3M melanoma): 20.2 µM
TGI (MALME-3M melanoma): 49.8 µM
GI50 (NCI-H322M lung): 46.9 µM
TGI (NCI-H322M lung): > 100 µM
GI50 (UO-31 renal): > 100 µM
TGI (UO-31 renal): > 100 µM
GI50 (OVCAR-4 ovarian): 36.4 µM
TGI (OVCAR-4 ovarian): > 100 µM
GI50 (NCI/ADR-RES ovarian): > 100 µM
TGI (NCI/ADR-RES ovarian): > 100 µM
GI50 (UACC-62 melanoma): 23.1 µM
TGI (UACC-62 melanoma): 63.6 µM
GI50 (U251 glioblastoma): 46.4 µM
TGI (U251 glioblastoma): > 100 µM
GI50 (HCT-116 colon): 39.2 µM
TGI (HCT-116 colon): > 100 µM
GI50 (HCC-2998 colon): 38.7 µM
TGI (HCC-2998 colon): > 100 µM
GI50 (MDA-MB-468 breast): 19.6 µM
TGI (MDA-MB-468 breast): 38.7 µM
GI50 (ACHN renal): 74.5 µM
TGI (ACHN renal): > 100 µM
GI50 (HL-60(TB) leukemia): 17.5 µM
TGI (HL-60(TB) leukemia): 31.5 µM
GI50 (MDA-MB-435 melanoma): 40.8 µM
TGI (MDA-MB-435 melanoma): > 100 µM
GI50 (OVCAR-3 ovarian): 23.3 µM
TGI (OVCAR-3 ovarian): 57.7 µM
GI50 (NCI-H460 NSCLC): 39.5 µM
TGI (NCI-H460 NSCLC): > 100 µM
GI50 (NCI-H23 lung): 28.8 µM
TGI (NCI-H23 lung): 82.3 µM
GI50 (A549 NSCLC): > 100 µM
TGI (A549 NSCLC): > 100 µM
GI50 (RPMI-8226 leukemia): 15.1 µM
TGI (RPMI-8226 leukemia): 30.8 µM
GI50 (786-0 renal): 62 µM
TGI (786-0 renal): > 100 µM
GI50 (MDA-MB-231 breast): 25.7 µM
TGI (MDA-MB-231 breast): 74.1 µM
GI50 (NCI-H226 lung): 34.2 µM
TGI (NCI-H226 lung): > 100 µM
